Source: patent publication US9409952B2, “Peptide-compound cyclization method” (Chugai Seiyaku Kabushiki Kaisha, priority 2011, dated 2016)
Like-named read-outs stand apart in the source and are kept apart here. Starred links: 1 amine or outer side, 2 acyl side, 3 side chain; linkers in the order of their positions; H or OH if unused. Positions of bridges follow the written chain, without caps; N, C: chain ends. Non-standard residues stand in square brackets, D forms with d. Residues, ends and D or L forms follow the SMILES beside them. *: point of attachment. Phe(3-(CH2)4CO) = O=C([C@H](Cc1cccc(CCCCC(=O)[*:3])c1)N[*:1])[*:2]; Phe(4-CF3) = N[C@@H](Cc1ccc(C(F)(F)F)cc1)C(=O)O; NMePhe(3-Cl) = CN[C@@H](Cc1cccc(Cl)c1)C(=O)O; NMeF = CN[C@@H](Cc1ccccc1)C(=O)O; NMeGABA = CN(CCCC(=O)[*:2])[*:1]; NMeI = CC[C@H](C)[C@H](NC)C(=O)O; 3Pal = N[C@@H](Cc1cccnc1)C(=O)O; NMeL = CN[C@@H](CC(C)C)C(=O)O; NMeV = CN[C@H](C(=O)O)C(C)C; NMeA = CN[C@@H](C)C(=O)O; Piperidide = C1CCN(*)CC1; dNMeA = CN[C@H](C)C(=O)O; β3hA = C[C@H](N)CC(=O)O; Sar = CNCC(=O)O; tBu = CC(C)(C)*

Assays:
[1] = PAMPA (parallel artificial membrane permeability assay); format: in vitro ADME; conditions: for Papp at 18 hours, 50 µM: PAMPA
Method in brief: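 Artificial membrane was 10% (w/v) egg lecithin plus 0.5% (w/v) cholesterol in dodecane on a PVDF filter. A 10 mM DMSO stock was added at 0.5% (v/v) to donor buffer (50 mM MOPSO, pH 6.5, 5.0% glycocholic acid). After 18 h at 37 °C, LC/MS or LC/UV gave donor and acceptor levels for Pe.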

[2] = Metabolic stability in human hepatic microsome; format: in vitro ADME; conditions: microsomes
[3] = membrane permeation rate (Pe), 50 mM MOPSO buffer pH 6.5 with 5.0% glycocholic acid, 37° C., 18 hours
[4] = pH 7.4, human hepatic microsome, NADPH(+), read-out: CL NADPH(+)
[5] = membrane permeation rate (Pe), 50 mM MOPSO buffer pH 6.5 with 5.0% glycocholic acid, 37° C., 18 hours, read-out: iPAMPA Pe

SMILES | iPAMPA Pe [1, 3] | microsomal CLint at 1 uM [2, 4] [µL/min/mg] | Papp at 18 hours, 50 µM [1, 5] [×10⁻⁶ cm/s] | Papp at 18 hours, 50 µM ([1]; pH 6.5) [×10⁻⁶ cm/s] | microsomal CLint at 1 uM ([2]; human, pH 7.4, CL NADPH(+)) [µL/min/mg]
CC[C@H](C)[C@@H]1NC(=O)[C@H](Cc2ccccc2)NC(=O)[C@H](CC(C)C)NC(=O)[C@@H](C)NC(=O)C[C@@H](C(=O)N2CCCCC2)NC(=O)[C@H](Cc2ccccc2)NC(=O)[C@H](CC(C)C)NC(=O)[C@H]([C@@H](C)O)NC(=O)[C@H](Cc2ccccc2)NC(=O)[C@H](CC(C)C)NC1=O [DP-515] ([dA]LFILFTLFD-Piperidide; lactam N-10) | 1.0E−07 | 23 |  |  | 
CC(C)C[C@H]1C(=O)N(C)[C@@H](Cc2ccccc2)C(=O)NCC(=O)N(C)[C@@H](Cc2ccccc2)C(=O)N(C)[C@@H](C)C(=O)N[C@@H]([C@@H](C)O)C(=O)N[C@H](C(=O)N(C)[C@@H](Cc2ccccc2)C(=O)N(C)[C@@H](Cc2ccccc2)C(=O)N[C@@H](C)C(=O)N2CCCCC2)CC(=O)N(C)CC(=O)N[C@@H](C(C)C)C(=O)N1C [DP-314] ([Sar]V[NMeL][NMeF]G[NMeF][NMeA]TD[NMeF][NMeF]A-Piperidide; lactam N-9) |  | 133 | 49 |  | 
CC(C)C[C@@H]1NC(=O)[C@@H](C(C)C)NC(=O)C[C@H](C)NC(=O)[C@H](CC(C)C)N(C)C(=O)[C@H](Cc2cccc(Cl)c2)N(C)C(=O)[C@H](CC(C)C)N(C)C(=O)[C@H](Cc2ccc(C(F)(F)F)cc2)NC(=O)[C@H](C)N(C)C(=O)[C@H]([C@@H](C)O)NC1=O [DP-792] (cyclo(LT[NMeA][Phe(4-CF3)][NMeL][NMePhe(3-Cl)][NMeL][β3hA][dV])) |  | 16 | 33 |  | 
CC(C)C[C@@H]1NC(=O)[C@H]([C@@H](C)O)NC(=O)[C@H](Cc2ccccc2)N(C)C(=O)[C@H](CC(C)C)N(C)C(=O)[C@H](Cc2ccccc2)N(C)C(=O)[C@H](C)N(C)C(=O)[C@H](C)N(C)C(=O)[C@H](CC(C)C)N(C)C(=O)[C@@H](C)NC(=O)C[C@@H](C(=O)N2CCCCC2)NC1=O [DP-169] ([dA][NMeL][NMeA][NMeA][NMeF][NMeL][NMeF]TLD-Piperidide; lactam N-10) |  | 43 | 36 |  | 
CC(C)C[C@H]1C(=O)N[C@@H]([C@@H](C)O)C(=O)N(C)[C@@H](C)C(=O)N[C@H](C(=O)N2CCCCC2)CC(=O)N(C)[C@@H](C)C(=O)N[C@@H](C)C(=O)N(C)[C@@H](Cc2ccccc2)C(=O)N(C)[C@@H](CC(C)C)C(=O)N[C@@H](Cc2ccccc2)C(=O)N1C [DP-150] ([NMeA]A[NMeF][NMeL]F[NMeL]T[NMeA]D-Piperidide; lactam N-9) |  | 701 | 33 |  | 
CC(C)C[C@@H]1NC(=O)[C@H](Cc2ccccc2)N(C)C(=O)[C@H](CC(C)C)N(C)C(=O)[C@@H](C)N(C)C(=O)C[C@H](C)NC(=O)[C@H](CC(C)C)N(C)C(=O)[C@H](Cc2ccccc2)N(C)C(=O)[C@H]([C@@H](C)O)NC(=O)[C@H](Cc2ccccc2)N(C)C1=O [DP-793] (cyclo(L[NMeF]T[NMeF][NMeL][β3hA][dNMeA][NMeL][NMeF])) |  | 218 | 53 |  | 
CC[C@H](C)[C@H](NC(=O)[C@H](C)N(C)C(=O)[C@@H]1CC(=O)N[C@H](C(C)C)C(=O)N(C)[C@@H](C)C(=O)N(C)[C@@H](CC(C)C)C(=O)N(C)[C@@H](CC(C)C)C(=O)N(C)CC(=O)N(C)[C@@H](Cc2ccccc2)C(=O)N[C@@H](C)C(=O)N(C)[C@@H](Cc2ccccc2)C(=O)N(C)[C@@H](CC(C)C)C(=O)N[C@@H]([C@@H](C)O)C(=O)N1)C(=O)N1CCCCC1 [DP-584] ([dV][NMeA][NMeL][NMeL][Sar][NMeF]A[NMeF][NMeL]TD[NMeA]I-Piperidide; lactam N-11) |  | 20 | 18 |  | 
CC[C@H](C)[C@H](NC(=O)[C@@H]1CC(=O)N[C@@H](C)C(=O)N[C@@H]([C@@H](C)O)C(=O)N[C@@H](CC(C)C)C(=O)N2CCC[C@H]2C(=O)N[C@@H](Cc2ccccc2)C(=O)N(C)[C@@H](Cc2ccccc2)C(=O)N(C)[C@@H](C(C)C)C(=O)N[C@@H](C)C(=O)N(C)[C@@H](CC(C)C)C(=O)N1)C(=O)N1CCCCC1 [DP-44] (ATLPF[NMeF][NMeV]A[NMeL]DI-Piperidide; lactam N-10) |  |  |  | 20 | 59
CC[C@H](C)[C@@H]1NC(=O)[C@H](CC(C)C)N(C)C(=O)[C@H](C)NC(=O)CCCN(C)C(=O)C[C@@H](C(=O)N2CCCCC2)NC(=O)[C@H]([C@@H](C)O)NC(=O)[C@H](Cc2ccccc2)NC(=O)[C@H](C(C)C)N(C)C(=O)[C@H](CC(C)C)N(C)C(=O)[C@H](Cc2ccccc2)N(C)C1=O [DP-121] ([NMeGABA]A[NMeL]I[NMeF][NMeL][NMeV]FTD-Piperidide; lactam N-10) |  |  |  | 41 | 46
CC(C)C[C@H]1C(=O)N[C@@H](C)C(=O)N(C)[C@@H](Cc2ccccc2)C(=O)N2CCC[C@H]2C(=O)N(C)[C@@H](CC(C)C)C(=O)N(C)[C@@H](C(C)C)C(=O)N[C@H](C(=O)N2CCCCC2)CC(=O)N(C)CCCC(=O)N[C@@H]([C@@H](C)O)C(=O)N(C)CC(=O)N(C)[C@@H](Cc2ccccc2)C(=O)N1C [DP-276] ([NMeGABA]T[Sar][NMeF][NMeL]A[NMeF]P[NMeL][NMeV]D-Piperidide; lactam N-11) |  |  |  | 19 | 68
CC[C@H](C)[C@@H]1NC(=O)[C@H](C)NC(=O)C[C@@H](C(=O)N2CCCCC2)NC(=O)[C@H](CC(C)C)NC(=O)[C@H](CC(C)C)NC(=O)[C@H](C(C)C)NC(=O)[C@H](C)N(C)C(=O)[C@H](Cc2ccccc2)NC(=O)CNC(=O)[C@H]([C@@H](C)O)NC(=O)[C@H](CC(C)C)N(C)C(=O)[C@@H]2CCCN2C1=O [DP-5] (AIP[NMeL]TGF[NMeA]VLLD-Piperidide; lactam N-12) |  |  |  | 13 | 68
CC(C)C[C@H]1C(=O)N[C@@H](Cc2ccccc2)C(=O)N[C@@H]([C@@H](C)O)C(=O)N(C)[C@@H](C)C(=O)N[C@H](C(=O)N2CCCCC2)CC(=O)N(C)CC(=O)N[C@@H](C)C(=O)N(C)[C@@H](Cc2ccccc2)C(=O)N(C)[C@@H](CC(C)C)C(=O)N1C [DP-161] ([Sar]A[NMeF][NMeL][NMeL]FT[NMeA]D-Piperidide; lactam N-9) |  | 194 | 26 |  | 
C=C1CCC(=O)N[C@@H](CC(C)C)C(=O)N2CCC[C@H]2C(=O)N(C)[C@@H](C(C)C)C(=O)N[C@@H](Cc2ccccc2)C(=O)N(C)CC(=O)N(C)[C@@H](CC(C)C)C(=O)N[C@@H](C)C(=O)N(C)[C@@H]([C@@H](C)CC)C(=O)N[C@H](C(=O)N2CCCCC2)Cc2ccc1cc2 [DP-880] |  | 490 | 34 |  | 
CC[C@H](C)[C@H]1C(=O)N[C@H](C(=O)N2CCCCC2)CC(=O)N[C@H](C(C)C)C(=O)N(C)[C@@H](CC(C)C)C(=O)N(C)[C@@H](Cc2ccccc2)C(=O)N(C)[C@@H](C)C(=O)N[C@@H]([C@@H](C)O)C(=O)N(C)CC(=O)N(C)[C@@H](CC(C)C)C(=O)N[C@@H](COC(C)(C)C)C(=O)N1C [DP-257] ([dV][NMeL][NMeF][NMeA]T[Sar][NMeL]S(tBu)[NMeI]D-Piperidide; lactam N-10) |  | 46 | 33 |  | 
CC(C)C[C@@H]1NC(=O)[C@H](Cc2cccnc2)NC(=O)[C@H](Cc2ccccc2)N(C)C(=O)[C@H](CC(C)C)NC(=O)[C@H](CC(C)C)N(C)C(=O)[C@H](Cc2ccccc2)NC(=O)[C@H](CC(C)C)N(C)C(=O)[C@H](CC(C)C)N(C)C(=O)[C@H](Cc2ccccc2)NC(=O)CN(C)C(=O)C[C@@H](C(=O)N(C)[C@@H](Cc2ccccc2)C(=O)N[C@@H](C)C(=O)N2CCCCC2)NC1=O [DP-600] ([Sar]F[NMeL][NMeL]F[NMeL]L[NMeF][3Pal]LD[NMeF]A-Piperidide; lactam N-11) | 1.0E−07 | 12 |  |  | 
CC[C@H](C)[C@H]1C(=O)N[C@@H](Cc2ccccc2)C(=O)N(C)[C@@H](Cc2ccccc2)C(=O)N[C@@H]([C@@H](C)O)C(=O)N2CCC[C@H]2C(=O)N[C@@H](CC(C)C)C(=O)N[C@H](C(=O)N2CCCCC2)Cc2cccc(c2)CCCCC(=O)NCC(=O)N(C)[C@@H](C(C)C)C(=O)N(C)[C@@H](CC(C)C)C(=O)N[C@@H](C)C(=O)N1C [DP-885] (G[NMeV][NMeL]A[NMeI]F[NMeF]TPL[Phe(3-(CH2)4CO)]-Piperidide; lactam N-11) |  | 75 | 30 |  | 
CC(C)C[C@H]1C(=O)NCC(=O)N[C@H](C(=O)N(C)[C@@H](Cc2ccccc2)C(=O)N[C@@H](C)C(=O)N2CCCCC2)CC(=O)N[C@@H](C)C(=O)N[C@@H]([C@@H](C)O)C(=O)N(C)[C@@H](C)C(=O)N(C)[C@@H](Cc2ccccc2)C(=O)N[C@@H](C(C)C)C(=O)N(C)[C@@H](Cc2ccccc2)C(=O)N1C [DP-378] (AT[NMeA][NMeF]V[NMeF][NMeL]GD[NMeF]A-Piperidide; lactam N-9) |  | 219 | 31 |  | 
CC[C@H](C)[C@@H]1NC(=O)[C@H]([C@@H](C)O)NC(=O)[C@H](CC(C)C)NC(=O)[C@H](Cc2ccccc2)NC(=O)[C@H](CC(C)C)NC(=O)[C@H](C)NC(=O)C[C@@H](C(=O)N2CCCCC2)NC(=O)[C@H](Cc2ccccc2)NC(=O)[C@H](CC(C)C)NC(=O)[C@H](Cc2ccccc2)N(C)C1=O [DP-329] (ALFLTI[NMeF]LFD-Piperidide; lactam N-10) |  | 66 | 2.4 |  | 
CC(C)C[C@H]1C(=O)NCC(=O)N[C@H](C(=O)N(C)[C@@H](Cc2ccccc2)C(=O)N[C@@H](C)C(=O)N2CCCCC2)CC(=O)N[C@H](C(C)C)C(=O)N[C@@H]([C@@H](C)O)C(=O)N(C)[C@@H](C)C(=O)N(C)[C@@H](Cc2ccccc2)C(=O)N[C@@H](C(C)C)C(=O)N(C)[C@@H](Cc2ccccc2)C(=O)N1C [DP-382] ([dV]T[NMeA][NMeF]V[NMeF][NMeL]GD[NMeF]A-Piperidide; lactam N-9) |  | 188 | 49 |  | 
